# Assay results reported in ChEMBL document CHEMBL1157148, “Synthesis of eudistomin D analogues and its effects on adenosine receptors” (Bioorg Med Chem, 2008).
# Columns and labels:
# Adenosine receptor A1 = biological target: T1, Adenosine receptor A1 (Homo sapiens, UniProt P30542); assay: Displacement of [3H]DPCPX from human recombinant adenosine A1 receptor expressed in HEK293T cells; type: cell-based, HEK-293T
# T1 sequence (P30542 whole entry): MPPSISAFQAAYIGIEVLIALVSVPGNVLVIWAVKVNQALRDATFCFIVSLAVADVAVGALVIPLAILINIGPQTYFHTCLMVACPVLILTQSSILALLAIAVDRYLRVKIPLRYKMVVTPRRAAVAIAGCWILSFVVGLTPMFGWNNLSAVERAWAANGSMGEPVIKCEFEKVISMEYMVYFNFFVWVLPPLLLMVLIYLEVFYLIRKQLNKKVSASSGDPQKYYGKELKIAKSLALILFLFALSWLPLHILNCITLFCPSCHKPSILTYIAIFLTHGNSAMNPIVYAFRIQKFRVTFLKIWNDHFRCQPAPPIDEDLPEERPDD
# Adenosine receptor A3 = biological target: T2, Adenosine receptor A3 (Homo sapiens, UniProt P0DMS8); assay: Displacement of [3H]NECA from human recombinant adenosine A3 receptor expressed in HEK293T cells; type: cell-based, HEK-293T
# T2 sequence (P0DMS8 whole entry): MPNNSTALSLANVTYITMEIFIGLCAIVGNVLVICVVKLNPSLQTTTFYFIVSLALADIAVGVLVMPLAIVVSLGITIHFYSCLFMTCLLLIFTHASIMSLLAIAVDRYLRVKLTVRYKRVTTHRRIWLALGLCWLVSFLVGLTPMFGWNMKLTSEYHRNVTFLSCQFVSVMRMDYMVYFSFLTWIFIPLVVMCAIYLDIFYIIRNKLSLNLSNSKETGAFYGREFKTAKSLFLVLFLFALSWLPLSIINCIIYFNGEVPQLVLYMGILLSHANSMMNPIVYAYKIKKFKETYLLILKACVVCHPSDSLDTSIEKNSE
# Adenosine receptor A2a = Adenosine receptor A2a (Homo sapiens, UniProt P29274); assay: biochemical
# Chain of Adenosine receptor A2a (P29274 whole entry): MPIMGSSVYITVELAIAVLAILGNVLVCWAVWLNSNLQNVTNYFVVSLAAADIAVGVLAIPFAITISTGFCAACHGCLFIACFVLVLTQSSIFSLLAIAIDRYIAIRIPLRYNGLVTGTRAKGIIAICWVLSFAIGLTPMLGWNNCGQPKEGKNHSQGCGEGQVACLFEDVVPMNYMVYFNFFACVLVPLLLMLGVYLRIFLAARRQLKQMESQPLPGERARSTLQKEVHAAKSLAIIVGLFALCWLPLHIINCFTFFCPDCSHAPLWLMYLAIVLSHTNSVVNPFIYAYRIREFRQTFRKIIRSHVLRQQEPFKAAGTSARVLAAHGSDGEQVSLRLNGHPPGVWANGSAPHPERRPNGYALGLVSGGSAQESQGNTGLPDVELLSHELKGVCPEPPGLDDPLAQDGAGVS
# Description: Displacement of [3H]CGS21680 from human recombinant adenosine A2A receptor expressed in HEK293T cells
SMILES,Ki (Adenosine receptor A1) [µM],Ki (Adenosine receptor A3) [µM],Ki (Adenosine receptor A2a) [µM]
Cc1cc2[nH]c3cccnc3c2c(C)c1O,> 100,4.43,24.9
Cc1cc2[nH]c3cnccc3c2c(C)c1O,> 100,17.7,> 100
Cc1cc2[nH]c3c[n+](C)ccc3c2c(C)c1O,> 100,29.7,> 100

# The next lines start with the values.
Ki (Adenosine receptor A1) [µM],Ki (Adenosine receptor A3) [µM],Ki (Adenosine receptor A2a) [µM],SMILES
> 100,43.4,80.6,Cc1cc2c(c(C)c1O)c1ccncc1n2C
> 100,13.3,44.1,Cc1cc2c(c(C)c1O)c1ncccc1n2C
> 100,> 100,> 100,Cc1cc2c(c(C)c1O)c1cc[n+](C)cc1n2C
